How the values were obtained:
CDK9/CycT1 = CDK9/CycT1 (Homo sapiens (Human), UniProt P50750); experiment: CDK9/CycT1 kinase assay (TR-FRET); format: biochemical; settings: Method 1
Text: 1. CDK9/CycT1 Kinase Assay:
CDK9/CycT1—inhibitory activity of compounds of the present invention was quantified employing the CDK9/CycT1 TR-FRET assay as described in the following paragraphs:
Recombinant full-length His-tagged human CDK9 and CycT1, expressed in insect cells and purified by Ni-NTA affinity chromatography, were purchased from Invitrogen (Cat. No PV4131). As substrate for the kinase reaction biotinylated peptide biotin-Ttds-[…]

[1] = tested on: HeLa human cervical tumour cells; experiment: Proliferation assay (crystal violet), HeLa; format: cell-based; settings: Homo sapiens, HeLa, Method 3, read-out: Inhibition of HeLa cell proliferation, IC50
Method: Cultivated tumour cells (NCI-H460, human non-small cell lung carcinoma cells, ATCC HTB-177; DU145, hormone-independent human prostate carcinoma cells, ATCC HTB-81; HeLa-MaTu, human cervical carcinoma cells, EPO-GmbH, Berlin; HeLa-MaTu-ADR, multidrug-resistant human cervical carcinoma cells, EPO-GmbH, Berlin; HeLa human cervical tumour cells, ATCC CCL-2; Caco-2 human colorectal carcinoma, ATCC HTB-37; B16F10 mouse melanoma cells, ATCC CRL-6475) were plated at a density of 5000 cells/well (DU145, HeLa-MaTu-ADR), 3000 cells/well (NCI-H460, HeLa-MaTu, HeLa), 1500 cells/well (Caco-2), or 1000 cells/well (B16 F10) in a 96-well multititer plate in 200 μL of their respective growth medium supplemented 10% fetal calf serum. After 24 hours, the cells of one plate (zero-point plate) were stained with crystal violet (see below), while the medium of the other plates was replaced by fresh culture medium (200 μL), to which the test substances were added in various concentrations (0 M, as well as in the range of […]; the final concentration of the solvent dimethylsulfoxide was 0.5%). The cells were incubated for 4 days in the presence of test substances. Cell proliferation was determined by staining the cells with crystal violet: the cells were fixed by adding 20 μL/measuring point of an 11% glutaric aldehyde solution for 15 minutes at room temperature. After three washing cycles of the fixed cells with water, the plates were dried at room temperature. The cells were stained by adding 100 μL/measuring point of a 0.1% crystal violet solution (pH 3.0). After three washing cycles of the stained cells with water, the plates were dried at room temperature. The dye was dissolved by adding 100 μL/measuring point of a 10% acetic acid solution. The absorbance was determined by photometry at a wavelength of 595 nm. The change of cell number, in percent, was calculated by normalization of the measured values to the absorbance values of the zero-point plate (=0%) and the absorbance of the untreated (0 M) cells (=100%). The IC50 values were determined by means of a 4 parameter fit.

CDK2/CycE = CDK2/CycE (Homo sapiens (Human), UniProt P24941); experiment: CDK2/CycE kinase assay (TR-FRET); format: biochemical; settings: Method 2
Text: 2. CDK2/CycE Kinase Assay:
CDK2/CycE—inhibitory activity of compounds of the present invention was quantified employing the CDK2/CycE TR-FRET assay as described in the following paragraphs:
Recombinant fusion proteins of GST and human CDK2 and of GST and human CycE, expressed in insect cells (Sf9) and purified by Glutathion-Sepharose affinity chromatography, were purchased from ProQinase GmbH (Freiburg, Germany). As substrate for the kinase reaction biotinylated peptide biotin-Ttds-[…]

[2] = unit cell empty (table: nM or μM)

Chain of CDK9/CycT1 (P50750 whole entry): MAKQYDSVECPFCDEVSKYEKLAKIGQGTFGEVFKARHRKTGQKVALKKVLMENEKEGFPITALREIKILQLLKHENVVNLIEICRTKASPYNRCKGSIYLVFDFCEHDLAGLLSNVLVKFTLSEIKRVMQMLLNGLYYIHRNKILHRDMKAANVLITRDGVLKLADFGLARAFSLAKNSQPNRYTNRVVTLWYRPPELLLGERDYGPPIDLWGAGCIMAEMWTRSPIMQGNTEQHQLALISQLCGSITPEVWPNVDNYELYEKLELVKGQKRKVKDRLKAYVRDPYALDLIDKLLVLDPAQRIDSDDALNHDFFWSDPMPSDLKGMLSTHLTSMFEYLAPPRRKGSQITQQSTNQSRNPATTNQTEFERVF
Chain of CDK9/CycT1 (O60563 whole entry partner): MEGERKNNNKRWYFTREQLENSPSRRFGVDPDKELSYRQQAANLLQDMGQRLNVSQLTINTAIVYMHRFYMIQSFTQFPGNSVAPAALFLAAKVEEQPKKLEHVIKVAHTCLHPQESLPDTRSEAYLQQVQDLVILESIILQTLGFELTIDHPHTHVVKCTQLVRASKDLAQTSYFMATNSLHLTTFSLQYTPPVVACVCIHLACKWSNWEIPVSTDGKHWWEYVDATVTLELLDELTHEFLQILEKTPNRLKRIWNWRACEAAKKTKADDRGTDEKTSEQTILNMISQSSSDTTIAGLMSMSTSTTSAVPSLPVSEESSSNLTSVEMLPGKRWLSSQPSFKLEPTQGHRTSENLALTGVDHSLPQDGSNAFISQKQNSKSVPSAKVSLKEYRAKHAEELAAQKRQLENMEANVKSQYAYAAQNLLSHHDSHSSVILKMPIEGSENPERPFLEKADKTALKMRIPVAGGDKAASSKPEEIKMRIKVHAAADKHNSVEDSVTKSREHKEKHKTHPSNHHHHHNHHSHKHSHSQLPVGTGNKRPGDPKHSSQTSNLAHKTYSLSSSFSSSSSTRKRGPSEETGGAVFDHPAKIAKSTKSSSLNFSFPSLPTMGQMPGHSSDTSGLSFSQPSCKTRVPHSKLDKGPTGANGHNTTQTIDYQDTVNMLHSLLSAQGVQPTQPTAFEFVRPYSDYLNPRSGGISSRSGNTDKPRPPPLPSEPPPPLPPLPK

SMILES | IC50 (CDK9/CycT1) [nM] | IC50 [1] [nM] | IC50 (CDK2/CycE) [nM] | IC50 (CDK9/CycT1; [2]) [nM] | IC50 (CDK2/CycE; [2]) [nM]
CCOC(=O)N=S(C)(=O)Cc1cccc(Nc2ncnc(-c3ccccc3OC)n2)c1 (racemic) [Example 25, (rac)-Ethyl [(3-{[4-(2-methoxyphenyl)-1,3,5-triazin-2-yl]amino}benzyl)(methyl)oxido-λ^6-sulfanylidene]carbamate] | 28 | 1100 | 6300 | – | –
CS(=N)(=O)Cc1cccc(Nc2ncnc(-c3ccc(F)cc3OCc3ccc(F)c(F)c3)n2)c1 (racemic) [Example 80, (rac)-4-{2-[(3,4-Difluorobenzyl)oxy]-4-fluorophenyl}-N-{3-[(S-methylsulfonimidoyl)methyl]phenyl}-1,3,5-triazin-2-amine] | 13 | 730 | 1000 | – | –
CS(=N)(=O)Cc1cccc(Nc2ncnc(-c3ccc(F)cc3OCC(F)F)n2)c1 (racemic) [Example 95, (rac)-4-[2-(2,2-Difluoroethoxy)-4-fluorophenyl]-N-{3-[(S-methylsulfonimidoyl)methyl]phenyl}-1,3,5-triazin-2-amine] | 21 | 1100 | 1800 | – | –
CS(=N)(=O)Cc1cccc(Nc2ncnc(-c3ccc(F)cc3OCc3ccon3)n2)c1 (racemic) [Example 93, (rac)-4-[4-Fluoro-2-(1,2-oxazol-3-ylmethoxy)phenyl]-N-{3-[(S-methylsulfonimidoyl)methyl]phenyl}-1,3,5-triazin-2-amine] | 7 | 680 | 2000 | – | –
COc1cc(F)ccc1-c1ncnc(Nc2ccc(Cl)c(CS(C)(=N)=O)c2)n1 (single isomer, unassigned) [Example 59.a, N-{4-Chloro-3-[(S-methylsulfonimidoyl)methyl]phenyl}-4-(4-fluoro-2-methoxyphenyl)-1,3,5-triazin-2-amine] | 25 | 1100 | 2900 | – | –
CS(=N)(=O)Cc1cccc(Nc2ncnc(-c3ccc(F)cc3OCc3ccc(C(F)(F)F)cc3)n2)c1 (racemic) [Example 86, (rac)-4-(4-Fluoro-2-{[4-(trifluoromethyl)benzyl]oxy}phenyl)-N-{3-[(S-methylsulfonimidoyl)methyl]phenyl}-1,3,5-triazin-2-amine] | 8 | 1100 | 1400 | – | –
COc1cc(F)ccc1-c1ncnc(Nc2ccc(Cl)c(CS(C)(=N)=O)c2)n1 (racemic) [Example 59, (rac)-N-{4-Chloro-3-[(S-methylsulfonimidoyl)methyl]phenyl}-4-(4-fluoro-2-methoxyphenyl)-1,3,5-triazin-2-amine] | 26 | 860 | 1400 | – | –
CS(=N)(=O)Cc1cccc(Nc2ncnc(-c3ccc(F)cc3OCc3cccnc3)n2)c1 (racemic) [Example 66, (rac)-4-[4-Fluoro-2-(pyridin-3-ylmethoxy)phenyl]-N-{3-[(S-methylsulfonimidoyl)methyl]phenyl}-1,3,5-triazin-2-amine] | 24 | 1700 | 1600 | – | –
CS(=N)(=O)Cc1cccc(Nc2ncnc(-c3ccc(F)cc3OCc3ccc(F)c(Cl)c3)n2)c1 (racemic) [Example 97, (rac)-4-{2-[(3-Chloro-4-fluorobenzyl)oxy]-4-fluorophenyl}-N-{3-[(S-methylsulfonimidoyl)methyl]phenyl}-1,3,5-triazin-2-amine] | 3 | 940 | 200 | – | –
COc1cc(F)ccc1-c1ncnc(Nc2cccc(CS(C)(=O)=NS(C)(=O)=O)c2)n1 (racemic) [Example 44, (rac)-N-[(3-{[4-(4-Fluoro-2-methoxyphenyl)-1,3,5-triazin-2-yl]amino}benzyl)(methyl)oxido-λ^6-sulfanylidene]methanesulfonamide] | 20 | 1000 | 1800 | – | –
CS(=N)(=O)Cc1cccc(Nc2ncnc(-c3ccc(F)cc3OCCCC(F)(F)F)n2)c1 (racemic) [Example 100, (rac)-4-[4-Fluoro-2-(4,4,4-trifluorobutoxy)phenyl]-N-{3-[(S-methylsulfonimidoyl)methyl]phenyl}-1,3,5-triazin-2-amine] | 6 | 920 | 1300 | – | –
CC(Oc1cc(F)ccc1-c1ncnc(Nc2cccc(CS(C)(=N)=O)c2)n1)c1ccc(F)cc1 (stereo not drawn) [Example 69, 4-{4-Fluoro-2-[1-(4-fluorophenyl)ethoxy]phenyl}-N-{3-[(S-methylsulfonimidoyl)methyl]phenyl}-1,3,5-triazin-2-amine] | 22 | – | 3500 | – | –
Cc1cc(COc2cc(F)ccc2-c2ncnc(Nc3cccc(CS(C)(=N)=O)c3)n2)ccc1F (racemic) [Example 96, (rac)-4-{4-Fluoro-2-[(4-fluoro-3-methylbenzyl)oxy]phenyl}-N-{3-[(S-methylsulfonimidoyl)methyl]phenyl}-1,3,5-triazin-2-amine] | 3 | 1000 | 350 | – | –
CS(=N)(=O)Cc1cccc(Nc2ncnc(-c3ccc(F)cc3OCCC3CC3)n2)c1 (racemic) [Example 76, (rac)-4-[2-(2-Cyclopropylethoxy)-4-fluorophenyl]-N-{3-[(S-methylsulfonimidoyl)methyl]phenyl}-1,3,5-triazin-2-amine] | 30 | 1100 | 3200 | – | –
CCOC(=O)N=S(C)(=O)Cc1cccc(Nc2ncnc(-c3cc(F)ccc3OCC3CCOCC3)n2)c1 (racemic) [Example 46, (rac)-Ethyl {[3-({4-[5-fluoro-2-(tetrahydro-2H-pyran-4-ylmethoxy)phenyl]-1,3,5-triazin-2-yl}amino)benzyl](methyl)oxido-λ^6-sulfanylidene}carbamate] | 120 | – | 11000 | – | –
[2H]c1c([2H])c([2H])c(C([2H])([2H])Oc2cc(F)ccc2-c2ncnc(Nc3cccc(CS(C)(=N)=O)c3)n2)c([2H])c1[2H] (racemic) [Example 62, (rac)-4-(4-Fluoro-2-{[(^2H5)phenyl(^2H2)methyl]oxy}phenyl)-N-{3-[(S-methylsulfonimidoyl)methyl]phenyl}-1,3,5-triazin-2-amine] | 7 | – | 220 | – | –
CCOC(=O)N=S(C)(=O)Cc1cccc(Nc2ncnc(-c3ccc(Cl)cc3OC)n2)c1 (racemic) [Example 11, (rac)-Ethyl [(3-{[4-(4-chloro-2-methoxyphenyl)-1,3,5-triazin-2-yl]amino}benzyl)(methyl)oxido-λ^6-sulfanylidene]carbamate] | 23 | – | 5500 | – | –
COc1ccc(F)cc1-c1ncnc(Nc2cccc(CS(C)(=N)=O)c2)n1 (racemic) [Example 21, (rac)-4-(5-Fluoro-2-methoxyphenyl)-N-{3-[(S-methylsulfonimidoyl)methyl]phenyl}-1,3,5-triazin-2-amine] | 56 | – | 3500 | – | –
CS(=N)(=O)Cc1cccc(Nc2ncnc(-c3cccc4c3OC(F)(F)O4)n2)c1 (racemic) [Example 19, (rac)-4-(2,2-Difluoro-1,3-benzodioxol-4-yl)-N-{3-[(S-methylsulfonimidoyl)methyl]phenyl}-1,3,5-triazin-2-amine] | 59 | – | 2100 | – | –
CS(=N)(=O)Cc1cccc(Nc2ncnc(-c3cccc4c3OCCC4)n2)c1 (racemic) [Example 30, (rac)-4-(3,4-Dihydro-2H-chromen-8-yl)-N-{3-[(S-methylsulfonimidoyl)methyl]phenyl}-1,3,5-triazin-2-amine] | – | 1200 | 940 | – | –
CCS(=N)(=O)Cc1cccc(Nc2ncnc(-c3ccc(F)cc3OC)n2)c1 (single isomer, unassigned) [Example 110, N-{3-[(S-ethylsulfonimidoyl)methyl]phenyl}-4-(4-fluoro-2-methoxyphenyl)-1,3,5-triazin-2-amine] | – | – | – | 9 | 1100
CS(=N)(=O)Cc1cccc(Nc2ncnc(-c3ccccc3OCc3ccc(Cl)c(Cl)c3)n2)c1 (racemic) [Example 61, (rac)-4-{2-[(3,4-Dichlorobenzyl)oxy]phenyl}-N-{3-[(S-methylsulfonimidoyl)methyl]phenyl}-1,3,5-triazin-2-amine] | 15 | – | 1200 | – | –
